Test results from PubChem BioAssay AID1259407 (Chemical Carcinogenesis Research Information System (CCRIS), 2018).
Calls of active or inactive are those of the source. No rule for the calls is given here.

Test system: CCRIS mutagenicity, Ames/micronucleus/aberration tests
Experiment: CCRIS mutagenicity studies
[1] = Test System: AMES SALMONELLA TYPHIMURIUM, Strain/Indicator: TA98, Metabolic Activation: NONE, Method: STANDARD PLATE
[2] = Test System: AMES SALMONELLA TYPHIMURIUM, Strain/Indicator: TA100, Metabolic Activation: NONE, Method: STANDARD PLATE
[3] = Test System: AMES SALMONELLA TYPHIMURIUM, Strain/Indicator: TA102, Metabolic Activation: NONE, Method: STANDARD PLATE
[4] = Test System: AMES SALMONELLA TYPHIMURIUM, Strain/Indicator: TA1535, Metabolic Activation: NONE, Method: STANDARD PLATE
[5] = Test System: AMES SALMONELLA TYPHIMURIUM, Strain/Indicator: TA1537, Metabolic Activation: NONE, Method: STANDARD PLATE
[6] = Test System: AMES SALMONELLA TYPHIMURIUM, Strain/Indicator: TA1538, Metabolic Activation: NONE, Method: STANDARD PLATE
[7] = Test System: AMES SALMONELLA TYPHIMURIUM, Strain/Indicator: TA98, Metabolic Activation: RAT LIVER S-9, AROCLOR 1254, Method: STANDARD PLATE
[8] = Test System: AMES SALMONELLA TYPHIMURIUM, Strain/Indicator: TA100, Metabolic Activation: RAT LIVER S-9, AROCLOR 1254, Method: STANDARD PLATE

Measured: mutagenic call

NCCNC(=O)c1ccc(Cl)cn1
inactive: Test System: AMES SALMONELLA TYPHIMURIUM, Strain/Indicator: TA97, Metabolic Activation: NONE, Method: PREINCUBATION inactive; negative | Test System: AMES SALMONELLA TYPHIMURIUM, Strain/Indicator: TA97, Metabolic Activation: NONE, Method: STANDARD PLATE inactive; negative | Test System: AMES SALMONELLA TYPHIMURIUM, Strain/Indicator: TA97, Metabolic Activation: RAT, LIVER, S-9, PHENOBARBITAL AND BETA-NAPHTHOFLAVONE, Method: PREINCUBATION inactive; negative | Test System: AMES SALMONELLA TYPHIMURIUM, Strain/Indicator: TA97, Metabolic Activation: RAT, LIVER, S-9, PHENOBARBITAL AND BETA-NAPHTHOFLAVONE, Method: STANDARD PLATE inactive; negative | Test System: AMES SALMONELLA TYPHIMURIUM, Strain/Indicator: TA98, Metabolic Activation: NONE, Method: PREINCUBATION inactive; negative | [1] inactive; negative | Test System: AMES SALMONELLA TYPHIMURIUM, Strain/Indicator: TA98, Metabolic Activation: RAT, LIVER, S-9, PHENOBARBITAL AND BETA-NAPHTHOFLAVONE, Method: PREINCUBATION inactive; negative | Test System: AMES SALMONELLA TYPHIMURIUM, Strain/Indicator: TA98, Metabolic Activation: RAT, LIVER, S-9, PHENOBARBITAL AND BETA-NAPHTHOFLAVONE, Method: STANDARD PLATE inactive; negative | Test System: AMES SALMONELLA TYPHIMURIUM, Strain/Indicator: TA100, Metabolic Activation: NONE, Method: PREINCUBATION inactive; negative | [2] inactive; negative | Test System: AMES SALMONELLA TYPHIMURIUM, Strain/Indicator: TA100, Metabolic Activation: RAT, LIVER, S-9, PHENOBARBITAL AND BETA-NAPHTHOFLAVONE, Method: PREINCUBATION inactive; negative | Test System: AMES SALMONELLA TYPHIMURIUM, Strain/Indicator: TA100, Metabolic Activation: RAT, LIVER, S-9, PHENOBARBITAL AND BETA-NAPHTHOFLAVONE, Method: STANDARD PLATE inactive; negative | Test System: AMES SALMONELLA TYPHIMURIUM, Strain/Indicator: TA102, Metabolic Activation: NONE, Method: PREINCUBATION inactive; negative | [3] inactive; negative | Test System: AMES SALMONELLA TYPHIMURIUM, Strain/Indicator: TA102, Metabolic Activation: RAT, LIVER, S-9, PHENOBARBITAL AND BETA-NAPHTHOFLAVONE, Method: PREINCUBATION inactive; negative | Test System: AMES SALMONELLA TYPHIMURIUM, Strain/Indicator: TA102, Metabolic Activation: RAT, LIVER, S-9, PHENOBARBITAL AND BETA-NAPHTHOFLAVONE, Method: STANDARD PLATE inactive; negative | Test System: AMES SALMONELLA TYPHIMURIUM, Strain/Indicator: TA1535, Metabolic Activation: NONE, Method: PREINCUBATION inactive; negative | [4] inactive; negative | Test System: AMES SALMONELLA TYPHIMURIUM, Strain/Indicator: TA1535, Metabolic Activation: RAT, LIVER, S-9, PHENOBARBITAL AND BETA-NAPHTHOFLAVONE, Method: PREINCUBATION inactive; negative | Test System: AMES SALMONELLA TYPHIMURIUM, Strain/Indicator: TA1535, Metabolic Activation: RAT, LIVER, S-9, PHENOBARBITAL AND BETA-NAPHTHOFLAVONE, Method: STANDARD PLATE inactive; negative | Test System: AMES SALMONELLA TYPHIMURIUM, Strain/Indicator: TA1537, Metabolic Activation: NONE, Method: PREINCUBATION inactive; negative | [5] inactive; negative | Test System: AMES SALMONELLA TYPHIMURIUM, Strain/Indicator: TA1537, Metabolic Activation: RAT, LIVER, S-9, PHENOBARBITAL AND BETA-NAPHTHOFLAVONE, Method: PREINCUBATION inactive; negative | Test System: AMES SALMONELLA TYPHIMURIUM, Strain/Indicator: TA1537, Metabolic Activation: RAT, LIVER, S-9, PHENOBARBITAL AND BETA-NAPHTHOFLAVONE, Method: STANDARD PLATE inactive; negative | Test System: AMES SALMONELLA TYPHIMURIUM, Strain/Indicator: TA1538, Metabolic Activation: NONE, Method: PREINCUBATION inactive; negative | [6] inactive; negative | Test System: AMES SALMONELLA TYPHIMURIUM, Strain/Indicator: TA1538, Metabolic Activation: RAT, LIVER, S-9, PHENOBARBITAL AND BETA-NAPHTHOFLAVONE, Method: PREINCUBATION inactive; negative | Test System: AMES SALMONELLA TYPHIMURIUM, Strain/Indicator: TA1538, Metabolic Activation: RAT, LIVER, S-9, PHENOBARBITAL AND BETA-NAPHTHOFLAVONE, Method: STANDARD PLATE inactive; negative | Test System: CHINESE HAMSTER V-79, Strain/Indicator: V-79 (HPRT)/6-THIOGUANINE, Metabolic Activation: NONE inactive; negative | Test System: CHINESE HAMSTER V-79, Strain/Indicator: V-79 (HPRT)/6-THIOGUANINE, Metabolic Activation: RAT, LIVER, S-9, AROCLOR 1254 inactive; negative | Test System: UDS RAT HEPATOCYTES, Strain/Indicator: THY INCORP, Metabolic Activation: NONE, Method: AUTORADIOGRAPHY inactive; negative

c1cnc2c(c1)-c1ncsc1CC2
inactive: Test System: AMES SALMONELLA TYPHIMURIUM, Strain/Indicator: TA1538, Metabolic Activation: RAT, LIVER, S-9, AROCLOR 1254, Method: STANDARD PLATE inactive; negative

C[Si](C)(C)O[Si](C)(C)C
inactive: [1] inactive; negative | [7] inactive; negative | [2] inactive; negative | [8] inactive; negative | [4] inactive; negative | Test System: AMES SALMONELLA TYPHIMURIUM, Strain/Indicator: TA1535, Metabolic Activation: RAT LIVER S-9, AROCLOR 1254, Method: STANDARD PLATE inactive; negative | [5] inactive; negative | Test System: AMES SALMONELLA TYPHIMURIUM, Strain/Indicator: TA1537, Metabolic Activation: RAT LIVER S-9, AROCLOR 1254, Method: STANDARD PLATE inactive; negative | [6] inactive; negative | Test System: AMES SALMONELLA TYPHIMURIUM, Strain/Indicator: TA1538, Metabolic Activation: RAT LIVER S-9, AROCLOR 1254, Method: STANDARD PLATE inactive; negative | Test System: E. COLI, Strain/Indicator: P3078 POLA, Metabolic Activation: NONE, Method: SPOT TEST inactive; negative | Test System: E. COLI, Strain/Indicator: P3078 POLA, Metabolic Activation: RAT LIVER S-9, AROCLOR 1254, Method: SPOT TEST inactive; negative | Test System: E. COLI, Strain/Indicator: W3110, Metabolic Activation: NONE, Method: SPOT TEST inactive; negative | Test System: E. COLI, Strain/Indicator: W3110, Metabolic Activation: RAT LIVER S-9, AROCLOR 1254, Method: SPOT TEST inactive; negative | Test System: MOUSE LYMPHOMA, Strain/Indicator: L5178Y (TK+/TK-), Metabolic Activation: NONE, Method: SUSPENSION/PLATE inactive; negative | Test System: MOUSE LYMPHOMA, Strain/Indicator: L5178Y (TK+/TK-), Metabolic Activation: RAT, LIVER, S-9, Method: SUSPENSION/PLATE inactive; negative

CC(C)=CCCC(C)CC=O (stereo unspecified)
inactive: Test System: AMES SALMONELLA TYPHIMURIUM, Strain/Indicator: TA97A, Metabolic Activation: NONE, Method: STANDARD PLATE inactive; negative | Test System: AMES SALMONELLA TYPHIMURIUM, Strain/Indicator: TA97A, Metabolic Activation: RAT LIVER S-9, AROCLOR 1254, Method: STANDARD PLATE inactive; negative | [1] inactive; negative | [7] inactive; negative | [2] inactive; negative | [8] inactive; negative | [3] inactive; negative | Test System: AMES SALMONELLA TYPHIMURIUM, Strain/Indicator: TA102, Metabolic Activation: RAT LIVER S-9, AROCLOR 1254, Method: STANDARD PLATE inactive; negative
